Here are results for 31 compounds from PubChem BioAssay (NCI).

Common to all, as to test: NCI tumour cell line growth inhibition, 48 h
Assay [1] deals with DMS 114 small cell lung.
In assay [2] the test system is SNB-78 CNS.
The subject of assay [3] is M19-MEL melanoma.
Assay [4] relates to KM20L2 colon.
Assay [5] concerns HOP-18 NSCLC.
For assay [6], the system named is RXF-631 renal.
Assay [7] has as its system LXFL 529 NSCLC.
In assay [8] the test system is XF 498 CNS.
The test system of assay [9] is MDA-N.
Assay [10] has as its system P388 leukemia.
Assay [11] concerns P388/ADR leukemia.

Molecules are shown by their SMILES. Where “and” joins values, the source holds several entries; their conditions need not be identical. Equal values may be shown once.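 Exposure lasted 48 hours, with cells grown in 96-well plates and compounds tested at five concentrations. GI50: concentration for 50% inhibition of growth. TGI marks complete inhibition of growth.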

As to `O=C(OC1CCC2OOC1O2)c1ccc([N+](=O)[O-])cc1` (stereo not drawn), the TGI in [1], in assay [2], in assay [3] and in assay [4] was above 100 µM each time.
Regarding `N#CCCCCCOCCOCCOCCOCCOCCCCCC#N`, the TGI in assay [5], in [6], in assay [1], in assay [3], in assay [7] and in assay [4] was above 100 µM throughout.
On to `O=C(NCc1cccnc1)C1COc2cc(-c3cc(=O)c4ccccc4o3)ccc2O1` (stereo not drawn), for which the TGI was above 100 µM in assay [5]; above 100 µM in assay [6]; 72.1 µM in assay [8]; above 79.5 µM in assay [1]; above 100 µM in [2]; above 100 µM in assay [3]. In addition, the TGI in assay [7] and in assay [4] was above 100 µM in each case.
In the case of `CC1(Br)CC2OC3(Br)C=CC(C)(O)C2(CC1=O)C3(C)C` (stereo not drawn), the TGI in [5], in assay [8], in assay [1], in [2], in assay [7] and in assay [4] was above 100 µM in each case.
With `CC[C@@]1(O)C(=O)OCc2c1cc1n(c2=O)Cc2cc3cccc([N+](=O)[O-])c3nc2-1`, the GI50 is 1.85 µM in assay [5]; 3.12 µM in [8]; 0.684 µM in assay [1]; 34.3 µM in assay [2]; 14.2 µM in assay [7]; 3.24 µM in assay [4]. For the same compound, the TGI was above 100 µM in assay [5]; 34.6 µM in [8]; 38.3 µM in [1]; above 100 µM in [2]; above 100 µM in assay [7]; 41.7 µM in [4].
The compound `Cc1ccc(NC(=O)c2cc3ccccc3c(N=Nc3cc(S(=O)(=O)O)ccc3O)c2O)c(C)c1` gave a TGI in [9] above 100 µM.
Regarding `NC1CCCCC1N.O=[Se]([O-])[O-].[Pt+4]` (stereo not drawn), the GI50 in [5] was 27 µM; in assay [2], 69.8 µM; in assay [3] it was 0.412 µM; in assay [7], 6.25 µM; in assay [4], 0.233 µM. Moreover, the TGI in assay [5] was above 100 µM; in [2] it was above 100 µM; in assay [3] it was 15.5 µM; in [7] it was above 100 µM; in assay [4] it was 26.9 µM.
Take `Cc1ccc(-c2cc3c4c(nc5ccccc53)C(=O)c3cccnc3-c4n2)cc1`: in assay [9], the GI50 is 3.27 µM and the TGI stood at 10.3 µM.
In the case of `COc1cc(-c2oc3c(OC)cc(OC)c(O)c3c(=O)c2OC)cc(OC)c1OC`, in [9], the TGI was above 100 µM.
Still for that read-out and setting: next, `C[C@@H]1CCC([C@@H](C)[C@H]2CC[C@H]3[C@@H]4CC[C@H]5C[C@@H](O)CC[C@]5(C)[C@H]4CC[C@]23C)=NC1`: above 100 µM.
Regarding `COC(=O)c1ccccc1N1C(=O)Cc2ccccc2C1=O`, the TGI in assay [1], in assay [2], in assay [3], in [7] and in [4] was above 100 µM in each case.
`c1ccc2cc(NCNc3ccc4ccccc4c3)ccc2c1` gave a TGI in [9] of 18.6 µM.
Regarding `Nc1nc(N)c(-c2ccccc2)c(C(=O)Nc2ccccc2)n1`, the TGI in [5], in assay [8], in [2], in [3] and in assay [4] was above 100 µM each time.
As to `CC1(C)CC[C@]2(C(=O)O)CC[C@]3(C)C(=CC[C@@H]4[C@@]5(C)C[C@H](O)[C@H](O)[C@@](C)(C(=O)O)[C@@H]5CC[C@]43C)[C@@H]2C1`, the TGI in assay [9] is above 100 µM.
Consider `O=[N+]([O-])c1ccc(C2=Nn3c(nnc3-c3ccc(Cl)cc3)SC2)o1`, for which the TGI in assay [9] is 16.4 µM; in assay [5], 33.6 µM; in assay [6] it was 27.9 µM; in assay [8] it was 28.7 µM; in assay [1], 12.4 µM; in assay [2], 38.6 µM. Besides, the TGI is 7.95 µM in assay [3], 14.1 µM in [7] and 16.1 µM in [4].
As for `CONC(C)=O`, the TGI in assay [9] is above 100 µM.
For `COc1ccc(NC(=O)CC/C(CC(=O)c2ccco2)=N/NC(N)=S)cc1`, the TGI in assay [5], in assay [6], in assay [8], in assay [1], in assay [2] and in assay [3] was above 100 µM throughout. Also, the TGI in [7] and in [4] was above 100 µM each time.
The compound `CC1=NN(c2ccc(S(=O)(=O)O)cc2)C(=O)/C1=C/c1ccc(Cl)cc1` yielded a TGI in [9] above 100 µM.
For the compound `N=N/C(=C\c1c(O)[nH]c2ccccc12)c1ccccc1`, in [9], the TGI was 13.7 µM.
Turning to `CCCCNC(=O)C1C(=O)N(CCCC)C(=O)/C1=N\N` (stereo not drawn), the TGI in assay [5], in assay [6], in assay [8], in assay [1], in assay [2] and in [3] was above 100 µM throughout. Moreover, the TGI in assay [7] and in assay [4] was above 100 µM throughout.
The compound `CCc1nc(N)nc(N)c1-c1ccc2nnn(O)c2c1` returned a TGI in [9] above 100 µM.
Consider `CCOC(=O)C(N=C(c1ccccc1)c1ccccc1)N(C(=O)OC(C)(C)C)C(=O)OC(C)(C)C` (stereo not drawn), for which the TGI in assay [1], in assay [2], in assay [3], in [7] and in assay [4] was above 100 µM throughout.
`CC(N)(/C=C/c1ccccc1)C(=O)O` (stereo not drawn) registered a TGI in assay [9] above 100 µM.
Take `NC(N)=NC(N)=Nc1cnccn1`: the TGI in assay [9] was above 100 µM.
On to `COc1cc2c(cc1OC)CC(=O)Nc1cc(OC)c(OC)cc1CC2`, for which the TGI in assay [5] was above 100 µM; in assay [6] it was above 100 µM; in assay [8] it was above 100 µM; in assay [1], 91.9 µM; in assay [2], above 100 µM; in assay [3] it was above 100 µM. For the same compound, the TGI in assay [7] and in assay [4] was above 100 µM throughout.
With `CC1=CCCC2C1(C)CCC(C)C2(C)Cc1cc(O)ccc1O` (stereo not drawn), the TGI in assay [9] was 25.3 µM; in assay [10] it was 4.94 µM; in assay [5], 36.2 µM; in assay [8], 21.7 µM; in assay [11], 13 µM; in assay [1], 13.3 µM. The values for the TGI in assay [2], in assay [3] and in [4] were 11 µM, 20.8 µM and 27.9 µM, respectively.
With `O=C1NC2C(=CC(O)C(O)C2O)c2cc3c(cc21)OCO3` (stereo not drawn), the TGI in assay [9] is 1.22 µM; in assay [10], 0.461 µM; in assay [5], 4.33 µM and 13.1 µM; in assay [6] it was 3.13 µM; in assay [8] it was 0.93 µM and 1.81 µM and 0.644 µM; in [11], 0.714 µM. In addition, the TGI in assay [1] was 3.84 µM and 2.17 µM; in [2] it was 4.94 µM and 11.2 µM; in assay [3] it was 1.72 µM and 1.53 µM; in [7], 3.66 µM; in [4], 5.54 µM and 5.32 µM. Besides, the GI50 in assay [5] is 0.545 µM and 0.392 µM; in assay [6] it was 0.23 µM; in [8], 0.207 µM and 0.416 µM; in assay [1], 0.335 µM and 0.321 µM; in assay [2] it was 0.456 µM and 0.426 µM; in [3], 0.353 µM and 0.282 µM. Also, the GI50 in assay [7] is 0.313 µM; in [4], 0.34 µM and 0.261 µM.
Take `Nc1nc(Cl)cc(NCC(O)CO)n1` (stereo not drawn): the TGI in assay [5], in [8], in assay [1], in assay [2], in assay [3] and in [7] was above 100 µM throughout. This compound yielded a TGI in assay [4] above 100 µM.
The compound `COC(=O)C1=CO[C@@H](OC2OC(CO)C(O)C(O)C2O)[C@H]2[C@@H](C)[C@@H](O)[C@@H](O)[C@@H]12` (stereo partly drawn) showed a TGI in assay [9] above 100 µM.
`COc1cc2c(c(OC)c1OC)-c1ccc(OC)c(=O)cc1[C@@H](NC(C)=O)CC2`: the TGI was 0.833 µM in assay [9]; 2.7 µM in assay [10]; above 91.2 µM in assay [6]; 55.9 µM in assay [11]; 0.0724 µM in [1]; above 522 µM in assay [3]. Moreover, the TGI in assay [4] was 0.00625 µM and 0.036 µM and < 0.0625 µM. Moreover, in assay [4], the GI50 is 0.00285 µM and 0.018 µM.
On to `CCC(O)C1Cc2c(C)cc3c(c2O1)C(=O)c1ccccc1C3=O` (stereo not drawn), for which the TGI is 73.6 µM in assay [5]; 58.9 µM in [8]; 97.7 µM in assay [1]; 90.6 µM in assay [2]; above 100 µM in [3]; above 100 µM in assay [7]. For the same compound, the TGI in [4] is above 100 µM.
